≈ marks a conversion by molar mass, not a printed value. Calls of active or inactive are those of the source. The calls are words filed in the database; no cut-off is given here.
Experiments:
[1] = tested on: Escherichia coli; assay: Antibacterial activity against Escherichia coli M15 containing pQE30 expression vector; type: functional
[2] = target: T1, Enoyl-[acyl-carrier-protein] reductase [NADH] FabI (Escherichia coli K-12) (UniProt P0AEK4); assay: Inhibition of Escherichia coli MG1655 enoyl-ACP reductase overexpressed in Escherichia coli M15 assessed as oxidation of NADH to NAD+ at 5 uM after 5 mins
T1 sequence (whole entry): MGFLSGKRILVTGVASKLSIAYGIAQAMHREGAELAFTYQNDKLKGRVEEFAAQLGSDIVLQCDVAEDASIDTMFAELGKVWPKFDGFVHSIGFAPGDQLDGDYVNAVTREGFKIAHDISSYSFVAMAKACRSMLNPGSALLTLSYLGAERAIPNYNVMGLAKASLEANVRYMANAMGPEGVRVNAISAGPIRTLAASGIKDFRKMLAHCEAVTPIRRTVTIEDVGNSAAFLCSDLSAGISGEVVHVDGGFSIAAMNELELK

[3] = tested on: Escherichia coli; assay: Antibacterial activity against Escherichia coli MG1655; type: functional
[4] = tested on: Escherichia coli; assay: Antibacterial activity against Escherichia coli M15; type: functional
[5] = tested on: Escherichia coli; assay: Antibacterial activity against fabI-overexpressing Escherichia coli M15; type: functional
[6] = tested on: Escherichia coli; assay: Ratio of MIC90 for fabI-overexpressing Escherichia coli M15 to MIC90 for Escherichia coli M15; type: functional
[7] = tested on: Escherichia coli; assay: Ratio of MIC90 for fabI-overexpressing Escherichia coli M15 to MIC90 for Escherichia coli M15 containing pQE30 expression vector; type: functional
[8] = target: T2, Enoyl-[acyl-carrier-protein] reductase [NADH] FabI (Escherichia coli K-12, UniProt P0AEK4); assay: Inhibition of Escherichia coli MG1655 enoyl-ACP reductase overexpressed in Escherichia coli M15 assessed as oxidation of NADH to NAD+ after 5 mins
T2 sequence (P0AEK4 whole entry): T1 sequence (whole entry)

[9] = target: T1, Enoyl-[acyl-carrier-protein] reductase [NADH] FabI (Escherichia coli K-12); assay: Uncompetitive inhibition of Escherichia coli MG1655 enoyl-ACP reductase overexpressed in Escherichia coli M15 assessed as oxidation of NADH to NAD+ after 5 mins by Lineweaver-Burke plot

Compound | MIC90 [1] [µg/mL] | Activity [2] | MIC90 [3] [µg/mL] | MIC90 [4] [µg/mL] | MIC90 [5] [µg/mL] | Ratio [6] | Ratio [7] | Ki [8] [µM] | Activity [9]
O=c1c(-c2ccc(O)cc2)coc2cc(O)cc(O)c12 [GENISTEIN] | 378 (≈ 1400 µM) | Active | 378 (≈ 1400 µM) | 378 (≈ 1400 µM) | > 500 | – | – | – | –
OC[C@H]1O[C@@H](Oc2cc(O)cc(/C=C/c3ccc(O)cc3)c2)[C@H](O)[C@@H](O)[C@@H]1O | – | Active | – | – | – | – | – | – | –
CC(C)=CCOc1c2occc2cc2ccc(=O)oc12 | – | Active | – | – | – | – | – | – | –
CC[C@H]1OC(=O)[C@H](C)[C@@H](O[C@H]2C[C@@](C)(OC)[C@@H](O)[C@H](C)O2)[C@H](C)[C@@H](O[C@@H]2O[C@H](C)C[C@H](N(C)C)[C@H]2O)[C@](C)(O)C[C@@H](C)C(=O)[C@H](C)[C@@H](O)[C@]1(C)O [ERYTHROMYCIN] | 16 (≈ 21.8 µM) | – | 16 (≈ 21.8 µM) | 16 (≈ 21.8 µM) | 16 (≈ 21.8 µM) | – | – | – | –
COc1cc(/C=C/C(=O)CC(=O)/C=C/c2ccc(O)c(OC)c2)ccc1O [CURCUMIN] | 73.7 (≈ 200 µM) | – | 73.7 (≈ 200 µM) | 73.7 (≈ 200 µM) | > 500 | 7 | 7 | 15 | Active
O=c1cc(-c2ccc(O)c(O)c2)oc2cc(O)cc(O)c12 [LUTEOLIN] | – | – | – | – | – | – | – | 7.05 | Active
O=C(N[C@H](CO)[C@H](O)c1ccc([N+](=O)[O-])cc1)C(Cl)Cl [CHLORAMPHENICOL] | 8 (≈ 24.8 µM) | – | 8 (≈ 24.8 µM) | 8 (≈ 24.8 µM) | 8 (≈ 24.8 µM) | – | – | – | –
GENTAMICIN | 8 | – | 8 | 8 | 8 | – | – | – | –
CO[C@H]1/C=C/O[C@@]2(C)Oc3c(C)c(O)c4c(O)c(c(/C=N/N5CCN(C)CC5)c(O)c4c3C2=O)NC(=O)/C(C)=C\C=C\[C@H](C)[C@H](O)[C@@H](C)[C@@H](O)[C@@H](C)[C@H](OC(C)=O)[C@@H]1C [RIFAMPIN] | 128 (≈ 156 µM) | – | 128 (≈ 156 µM) | 128 (≈ 156 µM) | 128 (≈ 156 µM) | – | – | – | –
Oc1cc(Cl)ccc1Oc1ccc(Cl)cc1Cl [TRICLOSAN] | 2.9 (≈ 10 µM) | – | 2.9 (≈ 10 µM) | 2.9 (≈ 10 µM) | > 500 | – | – | – | –
CN[C@@H]1[C@H](O)[C@H](NC)[C@H]2O[C@@]3(O)C(=O)C[C@@H](C)O[C@H]3O[C@@H]2[C@H]1O [SPECTINOMYCIN] | 20 (≈ 60.2 µM) | – | 20 (≈ 60.2 µM) | 20 (≈ 60.2 µM) | 20 (≈ 60.2 µM) | – | – | – | –

From ChEMBL document CHEMBL1153182, “Novel enoyl-ACP reductase (FabI) potential inhibitors of Escherichia coli from Chinese medicine monomers” (Bioorg Med Chem Lett, 2010)
